Like-named read-outs stand apart in the source and are kept apart here.
Experiment: Single escalating dose IV infusion pharmacokinetics in healthy volunteers (noncompartmental)
Assay type: in vivo, human
Conditions: human, plasma; for concentration at 24.5 h: read-out: concentration at 24.5 hours after the start of infusion; for concentration at 12.5 h: Time 12.50 h
Method: Forty-five subjects have enrolled in the study.
Analysis of plasma concentration versus time data for calculation of standard pharmacokinetic (PK) parameters following intravenous infusion administration was conducted using Phoenix WinNonlin version 6.3 using a nominal infusion duration and scheduled blood sampling times. Random subject numbers were assigned by the bioanalytical laboratory to retain the blind.
(§1) Analysis of plasma concentration versus time data for calculation of standard pharmacokinetic (PK) parameters following intravenous infusion administration was conducted using Phoenix WinNonlin version 6.3 using a nominal infusion duration and scheduled blood sampling times.
as §1

[1] = both sexes, iv, 48 mg/m2, Cohort 4, 48 mg/m^2 IV, r6-8=Subjects 1-3,r10=Mean,r12=Min,r13=Median,r14=Max,r16=Geometric Mean
[2] = both sexes, iv, 48 mg/m^2, Compound 1 Concentration, Cohort 4, 48 mg/m^2 IV, r7-9=Subjects 1-3,r11=Mean,r13=Min,r14=Median,r15=Max,r17=Geometric Mean
[3] = both sexes, iv, 96 mg/m^2, Cohort 5, 96 mg/m^2, 30-minute IV infusion, noncompartmental, subjects 1-6, Mean, Min, Median, Max, Geometric Mean
[4] = both sexes, iv, 96 mg/m^2, Compound 1 Concentration, Cohort 5, 96 mg/m^2 IV, r7-12=Subjects 1-6,r14=Mean,r16=Min,r17=Median,r18=Max,r20=Geometric Mean

CN1CCN(c2ccc(Nc3ncc4cc5n(c4n3)C3(CCCCC3)CNC5=O)nc2)CC1 [Compound 1, 2′-((5-(4-methylpiperazin-1-yl)pyridin-2-yl)amino)-7′,8′-dihydro-6′H-spiro[cyclohexane-1,9′-pyrazino[1′,2′:1,5]pyrrolo[2,3-d]pyrimidin]-6′-one]
Cmax (both sexes, iv, 48 mg/m2, Cohort 4, 48 mg/m^2 IV, mean, read-out: Cmax averaged): 224 ng/mL | Tmax (both sexes, iv, 48 mg/m2, Cohort 4, 48 mg/m^2 IV, median, read-out: median Tmax): 0.5 h | AUC(0-t) [1]: 453 ng·h/mL | MRT inf [1]: 8.08 h | AUC(0-inf) (both sexes, iv, 48 mg/m2, Cohort 4, 48 mg/m^2 IV, r6-8=Subjects 1-3,r10=Mean,r12=Min,r13=Median,r14=Max,r16=Geometric Mean, read-out: AUCinf): 499 ng·h/mL | Cmax (both sexes, iv, 48 mg/m2, Cohort 4, 48 mg/m^2 IV, r6-8=Subjects 1-3,r10=Mean,r12=Min,r13=Median,r14=Max,r16=Geometric Mean, read-out: Cmax): 224 ng/mL | Tmax (both sexes, iv, 48 mg/m2, Cohort 4, 48 mg/m^2 IV, r6-8=Subjects 1-3,r10=Mean,r12=Min,r13=Median,r14=Max,r16=Geometric Mean, read-out: Tmax): 0.417 h | half-life (both sexes, iv, 48 mg/m2, Cohort 4, 48 mg/m^2 IV, range over subjects, read-out: Half-lives range): 7.24 to 10.9 h | concentration at 72 h (both sexes, iv, 48 mg/m^2, Cohort 4, 48 mg/m^2 IV, one subject measurable, read-out: concentration at 72 hours after the EOI): 0.76 ng/mL | concentration at 24.5 h (both sexes, iv, 48 mg/m^2, Cohort 4, 48 mg/m^2 IV, range over 3 subjects): 2.08 to 4.66 ng/mL | concentration at 0.25 h [2]: 192 ng/mL | concentration at 0.75 h (both sexes, iv, 48 mg/m^2, Compound 1 Concentration, Cohort 4, 48 mg/m^2 IV, Time 0.75 h, r7-9=Subjects 1-3,r11=Mean,r13=Min,r14=Median,r15=Max,r17=Geometric Mean): 107 ng/mL | concentration at 1 h (both sexes, iv, 48 mg/m^2, Compound 1 Concentration, Cohort 4, 48 mg/m^2 IV, Time 1.00 h, r7-9=Subjects 1-3,r11=Mean,r13=Min,r14=Median,r15=Max,r17=Geometric Mean): 81.9 ng/mL | concentration at 2.5 h (both sexes, iv, 48 mg/m^2, Compound 1 Concentration, Cohort 4, 48 mg/m^2 IV, Time 2.50 h, r7-9=Subjects 1-3,r11=Mean,r13=Min,r14=Median,r15=Max,r17=Geometric Mean): 34.2 ng/mL | concentration at 3.5 h (both sexes, iv, 48 mg/m^2, Compound 1 Concentration, Cohort 4, 48 mg/m^2 IV, Time 3.50 h, r7-9=Subjects 1-3,r11=Mean,r13=Min,r14=Median,r15=Max,r17=Geometric Mean): 27.6 ng/mL | concentration at 6.5 h (both sexes, iv, 48 mg/m^2, Compound 1 Concentration, Cohort 4, 48 mg/m^2 IV, Time 6.50 h, r7-9=Subjects 1-3,r11=Mean,r13=Min,r14=Median,r15=Max,r17=Geometric Mean): 17 ng/mL | concentration at 8.5 h (both sexes, iv, 48 mg/m^2, Compound 1 Concentration, Cohort 4, 48 mg/m^2 IV, Time 8.50 h, r7-9=Subjects 1-3,r11=Mean,r13=Min,r14=Median,r15=Max,r17=Geometric Mean): 12.1 ng/mL | concentration at 12.5 h [2]: 8.36 ng/mL | AUC(0-inf) (both sexes, iv, 96 mg/m2, Cohort 5, 96 mg/m^2 IV, mean, read-out: AUCinf averaged): 1320 ng·h/mL | Cmax (both sexes, iv, 96 mg/m2, Cohort 5, 96 mg/m^2 IV, mean, read-out: Cmax averaged): 900 ng/mL | half-life (both sexes, iv, 96 mg/m2, Cohort 5, 96 mg/m^2 IV, mean, read-out: Half-lives averaged (converted)): 8.62 h | Tmax (both sexes, iv, 96 mg/m2, Cohort 5, 96 mg/m^2 IV, median, read-out: median Tmax): 0.375 h | half-life (both sexes, iv, 96 mg/m2, Cohort 5, 96 mg/m^2 IV, range over subjects, read-out: Half-lives range): 6.97 to 10.9 h | AUC(0-t) [3]: 1530 ng·h/mL | MRT inf [3]: 4.36 h | AUC(0-inf) (both sexes, iv, 96 mg/m^2, Cohort 5, 96 mg/m^2, 30-minute IV infusion, noncompartmental, subjects 1-6, Mean, Min, Median, Max, Geometric Mean, read-out: AUCinf): 1590 ng·h/mL | Cmax (both sexes, iv, 96 mg/m^2, Cohort 5, 96 mg/m^2, 30-minute IV infusion, noncompartmental, subjects 1-6, Mean, Min, Median, Max, Geometric Mean, read-out: Cmax): 949 ng/mL | Tmax (both sexes, iv, 96 mg/m^2, Cohort 5, 96 mg/m^2, 30-minute IV infusion, noncompartmental, subjects 1-6, Mean, Min, Median, Max, Geometric Mean, read-out: Tmax): 0.5 h | half-life (both sexes, iv, 96 mg/m^2, Cohort 5, 96 mg/m^2, 30-minute IV infusion, noncompartmental, subjects 1-6, Mean, Min, Median, Max, Geometric Mean, read-out: t½ (converted)): 7.11 h | concentration at 24.5 h (both sexes, iv, 96 mg/m^2, Cohort 5, 96 mg/m^2 IV, range over subjects): 3.96 to 9.59 ng/mL | concentration at 0.25 h [4]: 843 ng/mL | concentration at 0.5 h (both sexes, iv, 96 mg/m^2, Compound 1 Concentration, Cohort 5, 96 mg/m^2 IV, Time 0.50 h, r7-12=Subjects 1-6,r14=Mean,r16=Min,r17=Median,r18=Max,r20=Geometric Mean): 992 ng/mL | concentration at 12.5 h [4]: 11.9 ng/mL | Tmax (both, intravenous, […]2, Cohort 6, […]^2, 0-24.5 hr data, noncompartmental, subjects 1-6, Mean, Min, Median, Max, Geometric Mean, read-out: Tmax): 0.5 h | Tmax (both, intravenous, […]2, Cohort 6, […]^2, 0-[…] data, noncompartmental, subjects 1-6, Mean, Min, Median, Max, Geometric Mean, read-out: Tmax): 0.5 h | half-life (both, intravenous, […]2, Cohort 7, […]^2, N = 12, Geo. Mean, read-out: t1/2 (converted)): 14.5 h | Tmax (both, intravenous, […]2, Cohort 7, […]^2, N = 12, Geo. Mean, read-out: tmax): 0.36 h | half-life (both, intravenous, […]2, Cohort 7, […]^2, N = 12, min-max, read-out: t1/2 (converted)): 11.9 to 17.3 h | Tmax (both, intravenous, […]2, Cohort 7, […]^2, N = 12, min-max, read-out: tmax): 0.25 to 0.48 h | half-life (both, intravenous, […]^2, Cohort 6 + 7, […]^2, N = 18, Geo. Mean, read-out: t1/2 (converted)): 14.5 h | Tmax (both, intravenous, […]^2, Cohort 6 + 7, […]^2, N = 18, Geo. Mean, read-out: tmax): 0.37 h | half-life (both, intravenous, […]^2, Cohort 6 + 7, […]^2, N = 18, min-max, read-out: t1/2 (converted)): 11.9 to 17.3 h | Tmax (both, intravenous, […]^2, Cohort 6 + 7, […]^2, N = 18, min-max, read-out: tmax): 0.25 to 0.48 h | half-life (both, iv, […]2, Cohort 6, […]^2 IV, 0-24.5 hr data, mean, read-out: Half-lives averaged (converted)): 7.87 h | half-life (both, iv, […]2, Cohort 6, […]^2 IV, 0-24.5 hr data, range over subjects, read-out: Half-lives range): 5.78 to 8.79 h | half-life (both, iv, […]2, Cohort 6, […]^2 IV, 0-[…] data, mean, read-out: Half-lives averaging (converted)): 18 h | half-life (both, iv, […]2, Cohort 6, […]^2 IV, 0-[…] data, range over subjects, read-out: Half-lives range): 16.9 to 20.1 h | Tmax (both, iv, […]2, Cohort 6, […]^2 IV, median, read-out: median Tmax): 0.5 h

From US20160220569A1, “CDK4/6 Inhibitor Dosage Formulations For The Protection Of Hematopoietic Stem And Progenitor Cells During Chemotherapy” (G1 Therapeutics, Inc., priority 2015, published 2016)
